From patent publication US20060088579A1, “Transdermal drug delivery systems” (priority 2002, published 2006)
“And” between values parts separate entries of the source, which are not always exact repeats. Identical values can stand only once. Counter-ions that a name gives are not always drawn. Blank lines part the entries; values can stand above or below the molecule they belong to.

What was measured:
[1] = human, pH 7.4
[2] = Microemulsion phase diagrams, drug load and stability; type: physicochemical; details: O/W ME
Procedure: (i) Microemulsion Phase Diagrams. Four microemulsion (ME) systems were investigated to determine their ternary phase diagrams. All percentages are given as mass ratios.
Each of the three components for a system was titrated until a phase change between microemulsion and two phase mixture was observed. The boundary of this transition was recorded over the entire concentration range. A microemulsion was determined as a miscible, optically clear, stable solution. At the transition to a two phase regime, there is a clear clouding of the mixture as well as an eventual separation of the phases.
(ii) Preparation of Formulations. […] Drug flux was tested through ME system 1 at two selected concentrations, one in the W/O region, and the other in the O/W. The W/O system consisted of H2O:IPM:Tween 80 (10:52:38 w/w) while the O/W system contained H2O:Ethanol:IPM:Tween 80 (27:18:16:39 w/w). Both systems stably incorporated 10% w/w NMP and 10% w/w oleyl alcohol. […] The “water phase” sample consisted of the aqueous elements H2O:Ethanol:NMP (51:31:18) in the same relative proportions as if the organic components were removed.

[3] = LDA chaperoning: lidocaine and NMP flux with 1% LDA in IPM or NMP solvent; type: in vitro ADME, human; details: for NMP Fluxss: NMP solvent
From the text: (ii) Preparation of Skin Samples. […] (iii) Transport Experiments. […] J. […] (iv) LDA Chaperoning. […] The LDA's included octadecene, oleyl alcohol, and oleic acid. Similar solutions with NMP as the solvent were also obtained. […] (viii) Quantification of Transport. […] (ix) Calculations. […] D. Results

[4] = IPM/NMP binary vehicle transport, 2% w/v lidocaine free base; type: in vitro ADME, human
From the text: (iii) Preparation of Skin Samples. […] (iv) Lidocaine Transport Experiments. […] J. […] (v) IPM/NMP Binary Vehicle Transport. […] (vi) Quantification of Lidocaine. […] (vii) Calculations.

[5] = NMP partitioning between IPM and H2O; type: physicochemical; details: equilibrium mixture of H2O and IPM
Procedure: (vii) NMP Patitioning. Distilled water (2 ml), IPM (2 ml), and NMP (40 μl) were thoroughly vortexed in a glass tube. After equilibrating for 1 hour, the sample was centrifuged at 14,000 rpm for 6 minutes and separated into 2 phases. Samples of each phase were taken to determine NMP concentration by HPLC.
(viii) Quantification of Transport.

[6] = H2O/NMP binary vehicle transport
[7] = in vitro; details: human, pH 7.4
[8] = human, 24 h, 2 % w/v, pH 7.4

time at which steady state is reached in vitro [1]: about 4 hours
SMILES: C[C@]12CC[C@@H]3c4ccc(O)cc4CC[C@H]3[C@@H]1CC[C@@H]2O [Estradiol]

% IPM Uptake (maximum) ([2]; Tween 80/Ethanol ratio 1:1): 47 % (w/w)
% IPM Uptake (maximum) ([2]; Tween 80/Ethanol ratio 1:2): 8.3 % (w/w)
% IPM Uptake (maximum) ([2]; Tween 80/Ethanol ratio 2:1): 42 % (w/w)
% IPM Uptake (maximum) ([2]; Tween 80/Ethanol ratio 2:3): 8.1 % (w/w)
% IPM Uptake (maximum) ([2]; Tween 80/Ethanol ratio 4:1): 4.5 % (w/w)
% IPM Uptake (maximum) ([2]; Tween 80/Ethanol ratio 9:1): 1.6 % (w/w)
SMILES: CCCCCCCCCCCCCC(=O)OC(C)C [IPM, isopropyl myristate]

NMP Fluxss ([3]; 1% w/v isopropyl myristate): 15.8 ± 3.6 mg/cm^2/hr
NMP Fluxss ([3]; 1% w/v octadecene): 15.3 ± 1.2 mg/cm^2/hr
NMP Fluxss ([3]; 1% w/v oleic acid): 17.6 ± 2.0 mg/cm^2/hr
NMP Fluxss ([3]; 1% w/v oleyl alcohol): 20.7 ± 1.0 mg/cm^2/hr
NMP Fluxss ([3]; no LDA): 12.6±0.5 mg/cm^2/hr
flux of NMP through human skin ([3]; approximate value): ~10 mg/cm^2/hr
NMP 24 Hour Transport ([4]; 10% NMP (v/v)): 22.8 ± 3.7 µg
NMP Fluxss ([4]; 10% NMP (v/v)): 1.46 ± 0.9 μg cm^−2 hr^−1
NMP 24 Hour Transport ([4]; 25% NMP (v/v)): 83.6 ± 5.7 µg
NMP Fluxss ([4]; 25% NMP (v/v)): 5.40 ± 0.49 μg cm^−2 hr^−1
NMP 24 Hour Transport ([4]; 50% NMP (v/v)): 112 ± 5.3 µg
NMP Fluxss ([4]; 50% NMP (v/v)): 9.01 ± 0.84 μg cm^−2 hr^−1
NMP 24 Hour Transport ([4]; 60% NMP (v/v)): 134 ± 13 µg
NMP Fluxss ([4]; 60% NMP (v/v)): 11.2 ± 1.2 μg cm^−2 hr^−1
NMP 24 Hour Transport ([4]; 75% NMP (v/v)): 161 ± 6 µg
NMP Fluxss ([4]; 75% NMP (v/v)): 14.0 ± 0.9 μg cm^−2 hr^−1
NMP 24 Hour Transport ([4]; 90% NMP (v/v)): 128 ± 1 µg
NMP Fluxss ([4]; 90% NMP (v/v)): 11.7 ± 0.1 μg cm^−2 hr^−1
NMP 24 Hour Transport ([4]; 100% NMP (v/v)): 115 ± 0.2 µg
NMP Fluxss ([4]; 100% NMP (v/v)): 10.7 ± 0.2 μg cm^−2 hr^−1
NMP partition in the water phase [5]: 98%
[IPM]/[H2O] partition coefficient of NMP [5]: 0.02±0.001 and 0.02
NMP Fluxss ([6]; 10% NMP): 0.007 ± 0.007 μg/cm^2/hr
NMP Fluxss ([6]; 20% NMP): 0.008 ± 0.003 μg/cm^2/hr
NMP Fluxss ([6]; 40% NMP): 0.026 ± 0.021 μg/cm^2/hr
NMP Fluxss ([6]; 50% NMP): 0.010 ± 0.002 μg/cm^2/hr
NMP Fluxss ([6]; 60% NMP): 0.106 ± 0.058 μg/cm^2/hr
NMP Fluxss ([6]; 80% NMP): 3.26 ± 0.74 μg/cm^2/hr
NMP Fluxss ([6]; 90% NMP): 9.18 ± 0.53 μg/cm^2/hr
NMP Fluxss ([6]; 100% NMP): 12.6 ± 0.5 μg/cm^2/hr
Papp at 24 h, 10 % v/v [7]: 0.03 ×10⁻⁶ cm/s
Papp at 24 h, 20 % v/v [7]: 0.0178 ×10⁻⁶ cm/s
Papp at 24 h, 40 % v/v [7]: 0.0281 ×10⁻⁶ cm/s
Papp at 24 h, 50 % v/v [7]: 0.00861 ×10⁻⁶ cm/s
Papp at 24 h, 60 % v/v [7]: 0.0758 ×10⁻⁶ cm/s
Papp at 24 h, 80 % v/v [7]: 1.74 ×10⁻⁶ cm/s
Papp at 24 h, 90 % v/v [7]: 4.36 ×10⁻⁶ cm/s
Papp at 24 h, 100 % v/v [7]: 1.75 ×10⁻⁶ cm/s
SMILES: CN1CCCC1=O [NMP, n-methyl pyrrolidone]

Fluxss from H2O [8]: 2.44 ± 0.98 μg/cm^2/hr
Fluxss from H2O/NMP [8]: 6.31 ± 0.14 μg/cm^2/hr
SMILES: CCCNC(C)C(=O)Nc1ccccc1C (centres unmarked) [Prilocaine HCl]
